Tested on: DAOY cells
Test: LDH release cytotoxicity assay
Assay type: cell-based, human
Settings: DAOY cells treated for 16 hours
Method: Lactate dehydrogenase (LDH) levels as a measure of cell death were determined using the Non-radioactive Cytotoxicity kit (Promega, Madison, Wis.) according to manufacturer's instructions. […] Cell debris was removed by centrifugation. Viable cell LDH was collected from cells lysed by freezing for 15 minutes at −70° C. followed by thawing at 37° C. The medium was collected and cleared from cell debris by centrifugation. The relative release of LDH was determined as the ratio of released LDH versus total LDH from viable cells.
Data represent mean±SEM of three independent experiments.

COc1cc(C=CC(C)=O)ccc1O [half-curcumin, 4-(4-hydroxy-3-methoxyphenyl)-3-buten-2-one]
cell death (LDH release): failed to induce cell death

From patent US8835124B2, “Method for treating cancer with agents that bind phosphorylated CDC27” (The Nemours Foundation, priority 2011, dated 2014)
